Laboratory results from PubChem BioAssay (NCI).
Several values for one entry are separate records, joined by “and”; a condition that tells them apart may be missing. Equal entries are not always repeated.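 Protocol summary: plate cells (96-well), add compound at 5 concentrations, incubate 48 h, interpolate endpoints linearly. GI50 marks 50% less growth. Definition used: TGI = concentration required for complete inhibition of growth.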

System: MDA-MB-468 breast
Experiment: NCI tumour cell line growth inhibition, 48 h

| SMILES | GI50 | TGI |
| --- | --- | --- |
| CC[C@H](C)[C@H](NC(=O)C12CC(NC)(C1)C2)C(=O)N(C)[C@H](C[C@@H](OC(C)=O)c1nc(C(=O)N[C@@H](Cc2ccccc2)C[C@H](C)C(=O)OC)cs1)C(C)C | 59.1 nM | 2260 nM |
| COc1ccc2cnc(N)c(C#Cc3cc(C(=O)Nc4ccc(CN5CCN(C)CC5)c(C(F)(F)F)c4)cnc3C)c2c1 | 8830 nM | 27600 nM |
| COc1ccc2c(c1)c(-c1nonc1-c1cn(C)c3ccccc13)cn2C | 330 nM |  |
| CCn1cc(C2NC(=O)c3ccccc3N2)c2cccc(C)c21 (stereo not drawn) | 216 nM | 656 nM |
| O=C1Nc2ccccc2/C1=C/C(=N/c1nnc(-c2ccc(Cl)cc2)s1)c1ccccc1 | 2020 nM | 6270 nM |
| CN1CCN(CCOc2ccc(-c3cnc4c(-c5cccc(F)c5F)cnn4c3)cc2)CC1 | 1450 nM | 3060 nM |
| CC(=O)O[C@H]1C[C@H](O[C@H]2[C@@H](O)C[C@H](O[C@H]3[C@@H](O)C[C@H](O[C@H]4CC[C@@]5(C)C(CCC6C5C[C@@H](O)[C@]5(C)[C@@H](C7=CC(=O)OC7)CC[C@]65O)C4)O[C@@H]3C)O[C@@H]2C)O[C@H](C)[C@H]1O[C@@H]1O[C@H](CO)[C@@H](O)[C@H](O)[C@H]1O (stereo partly drawn) | 85.6 nM and 220 nM | 223 nM and 577 nM |
| COc1cc(Cl)cc(-c2nn(-c3cccc(NC(=O)c4cccc(C(F)(F)F)c4)c3)cc2-c2ccncc2)c1 | 4260 nM | > 100000 nM |
| c1ccc(-c2n(Cc3ccc4ccccc4n3)cc[n+]2Cc2ccc3ccccc3n2)cc1 | 221 nM | 1430 nM |
| COc1cccc(CNCCN2C(=O)c3ccc4c5c(ccc(c35)C2=O)C(=O)N(CCNCc2cccc(OC)c2)C4=O)c1 | 1760 nM | 3560 nM |
| N#Cc1c(NC(=O)c2cccc(C(F)(F)F)c2F)sc2c1CCC(=O)C2 | 292 nM | 1030 nM |
| COC(=O)c1ccc2[nH]c(O)c(C(=Nc3ccc(N(C)C(=O)CN4CCN(C)CC4)cc3)c3cccc(OC)c3)c2c1 | 1440 nM | 3500 nM |
| O=S(=O)(Nc1cccc(Cl)c1)c1ccc(-c2cnc(C3CC3)o2)cc1 | 411 nM | 12200 nM |
| COc1ccc(C(=O)N2N=C(c3ccc(Br)cc3)CC2c2cn(-c3ccccc3)nc2-c2ccccc2)cc1 (stereo not drawn) | 6590 nM | > 50000 nM |
| CN1CCN(CCCOc2ccc3ncnc(Nc4ccc(OCc5cccc(F)c5)c(Cl)c4)c3c2)CC1 | 367 nM | 1840 nM |
| C[C@H](Nc1ccc2c(c1)OCCn1cc(N3C(=O)OC[C@H]3C(F)F)nc1-2)C(N)=O | 343 nM | 6270 nM |
| [Cl][Ru].c1ccc(-c2cc(-c3ccccn3)nc(-c3ccccn3)c2)cc1.c1ccc(-c2ccnc3c2ccc2c(-c4ccccc4)ccnc23)cc1 | 208 nM | 635 nM |
| COc1ccc(-c2nc(S(=O)(=O)c3ccccc3)c(S(=O)CC(=O)N3CCC(C)CC3)o2)cc1 (stereo not drawn) | 1630 nM | 4650 nM |
| O=C(c1ccccc1)N(C(=S)NCCc1ccc(Cl)cc1)c1ccc(Cl)cc1 | 5410 nM | 33400 nM |

| SMILES | GI50 | TGI |
| --- | --- | --- |
| CCOC(=O)c1c(NC(=O)c2cccc(C(F)(F)F)c2)sc2c(CN3CCN(C)CC3)c(O)ccc12 | 1650 nM | 3250 nM |
| CC(C)c1ccc(COCc2cc(CN3CCCC3)c(O)c3ncccc23)cc1 | 401 nM | 1880 nM |
| Cc1ccc2c(c1)C(=O)C(c1c(-c3[nH]c(=O)c4ccc(C)cc4c3O)c(O)c3ccccc3c1O)=NC2=O | 313 nM | 987 nM |
| N#C/C(=C\c1ccc2c(c1)OCO2)n1nnc2ccccc21 | 555 nM | 7980 nM |
| Cc1cc(Cl)ccc1Nc1nc(C(F)(F)F)ccc1C(=O)N/N=C/c1cccc(O)c1 | 1510 nM | 9690 nM |
| Cn1ccnc1C(=O)/C=C/c1ccc(C(=O)Nc2ccc(F)cc2)cc1 | 813 nM | 3060 nM |
| COc1cc2c(Nc3ccc(Cl)c(Cl)c3F)ncnc2cc1OCC1C[C@@H]2CN(C)C[C@@H]2C1 (stereo partly drawn) | 24.1 nM and 21.7 nM and 21.2 nM | 175 nM and 633 nM and 213 nM |
| CCOC(=O)C(=Cc1ccc(-c2ccccc2)cc1)C(=O)OCC | 3240 nM | 10100 nM |
| COc1cc(/C=C\c2cc(/C=C\c3ccc(O)c(OC)c3)n(C(=O)COc3ccc(Cl)cc3Cl)n2)ccc1O | 1990 nM | 5340 nM |
| C=C1CC[C@@H]2C(C)(C)[C@H](O)CC[C@@]2(C)[C@@H]1COc1ccc2ccc(=O)oc2c1 | 20500 nM | 78200 nM |
| CCOc1cc2ncc(C#N)c(Nc3ccc(F)c(Cl)c3)c2cc1NC(=O)CC1CCSS1 (stereo not drawn) | 473 nM | 1170 nM |
| C=C1C(=O)O[C@H]2[C@H]1CC/C(COC(=O)NCc1ccc(Cn3c(=O)sn(CCCC)c3=O)cc1)=C\CC[C@@]1(C)O[C@@H]21 | 1730 nM | 3630 nM |
| Cc1cc2nc(CS)[nH]c2cc1C | 13000 nM | 30400 nM |
| CN(C)c1ccc2nc3ccc(=[N+](C)C)c([N+](=O)[O-])c-3sc2c1 | 1410 nM | 3350 nM |
| CCOC(=O)c1cnc2c(C)cc(C)cc2c1NCCCN(C)C | 2000 nM | 8450 nM |
| O=C1/C(=C/c2ccc(Cl)cc2Cl)CN(S(=O)(=O)c2ccccc2)C/C1=C\c1ccc(Cl)cc1Cl | 687 nM | 2730 nM |
| Cc1ccc(C2CC(c3cccc(Nc4ccncc4)c3)=NN2c2cc(Cl)cc(Cl)c2)cc1 (stereo not drawn) | 1410 nM | 2840 nM |
| COc1ccc(OC)c(N(CCN2C(=O)c3ccccc3C2=O)C(=O)CCl)c1 | 4430 nM | 22000 nM |
